SMILES strings stand for the structures. Read-outs that look alike come from different tables or passages of the source.

This is an account of results in patent publication US9216247B2, “Buffered compositions for dialysis” (Advanced Renal Technologies, priority 1998, dated 2015).

Data set [1] relates to coagulation behavior of blood. Kind of data set: clotting time of patients dialysed with citric acid dialysate. The class given is in vivo. To be noted: 2.4 mEq/L of citric acid in dialysate; beyond that achieved with heparin.

For the compound `CC(=O)[O-].[Na+]` [sodium acetate], the buffering action entry is, setting by setting: (bicarbonate concentrate solutions of 8.1<pH<8.3) “evident”; (bicarbonate concentrate solutions with a pH of <8.0) “not apparent”.

With `O=C(O)CC(O)(CC(=O)O)C(=O)O` [citric acid, Citric acid], the “increase in patient's clotting time” value in data set [1] is reported as “no measurable increase”.
